Experimental data taken from PMC7714403 (JCI Insight, 2020).

How the values were obtained:
PKR = PKR (Homo sapiens, UniProt P19525); assay: KiNativ, OCI cells live cell; type: cell-based
GCN2 domain2 = target: T1, GCN2 domain2 (Homo sapiens, UniProt Q9P2K8); assay: KiNativ, OCI cells live cell; type: cell-based; details: 2 h
T1 construct: GCN2 domain2

HCK = HCK (Homo sapiens, UniProt P08631); assay: KiNativ, OCI cells live cell; type: cell-based; details: 2 h, labeling site Activation Loop, peptide […]
RSK3 domain1 = target: T2, RSK3 domain1 (Homo sapiens, UniProt Q15349); assay: KiNativ, OCI cells live cell; type: cell-based; details: 2 h, labeling site Lys2, peptide […]
T2 construct: RSK3 domain1

CDK4 = CDK4 (Homo sapiens, UniProt P11802); assay: KdELECT binding assay; set-up: purchased Eurofins DiscoverX
MLK4 = MLK4 (Homo sapiens, UniProt Q5TCX8); assay: KiNativ, OCI cells live cell; type: cell-based; details: 2 h, labeling site Lys2, peptide […]
[1] = system: FGFR1, FMS, PDGFRb, TYRO3; assay: KiNativ, OCI cells live cell; type: cell-based, human; details: labeling site Lys1, peptide VAVKMLK
ARAF = ARAF (Homo sapiens, UniProt P10398); assay: KiNativ, OCI cells live cell; type: cell-based; details: 2 h, labeling site Lys2, peptide […]
RSK2 domain1 = target: T3, RSK2 domain1 (Homo sapiens, UniProt P51812); assay: KiNativ, OCI cells live cell; type: cell-based; details: 2 h
T3 construct: RSK2 domain1
T3 sequence (P51812 whole entry, the tested form may be a part): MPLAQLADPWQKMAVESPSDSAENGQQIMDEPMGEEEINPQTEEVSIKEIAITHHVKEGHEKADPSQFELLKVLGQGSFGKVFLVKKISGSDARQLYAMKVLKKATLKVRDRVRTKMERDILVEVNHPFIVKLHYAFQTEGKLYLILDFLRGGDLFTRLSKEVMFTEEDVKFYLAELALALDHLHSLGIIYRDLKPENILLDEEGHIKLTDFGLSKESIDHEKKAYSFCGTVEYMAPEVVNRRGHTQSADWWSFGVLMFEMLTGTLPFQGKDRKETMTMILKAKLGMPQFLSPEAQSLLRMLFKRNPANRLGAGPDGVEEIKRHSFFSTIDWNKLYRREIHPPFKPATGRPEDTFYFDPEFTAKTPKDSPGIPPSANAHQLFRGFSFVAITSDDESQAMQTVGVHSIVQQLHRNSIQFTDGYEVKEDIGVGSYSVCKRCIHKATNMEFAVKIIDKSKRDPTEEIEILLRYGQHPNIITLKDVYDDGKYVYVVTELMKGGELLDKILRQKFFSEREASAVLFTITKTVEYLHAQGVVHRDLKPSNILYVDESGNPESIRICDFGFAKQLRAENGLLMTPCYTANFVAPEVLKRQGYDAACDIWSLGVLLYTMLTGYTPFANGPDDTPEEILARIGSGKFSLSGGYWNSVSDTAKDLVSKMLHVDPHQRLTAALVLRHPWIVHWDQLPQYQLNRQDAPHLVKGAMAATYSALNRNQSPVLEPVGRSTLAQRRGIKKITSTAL

KSR1, KSR2 = assay: KiNativ, OCI cells live cell; type: cell-based, human; details: labeling site Activation Loop, peptide SKNVFYDNGK
CDK2 = CDK2 (Homo sapiens, UniProt P24941); assay: KiNativ, OCI cells live cell; type: cell-based
PKCi = PKCi (Homo sapiens, UniProt P41743); assay: KiNativ, OCI cells live cell; type: cell-based; details: 2 h
Sequence of PKCi (P41743 whole entry): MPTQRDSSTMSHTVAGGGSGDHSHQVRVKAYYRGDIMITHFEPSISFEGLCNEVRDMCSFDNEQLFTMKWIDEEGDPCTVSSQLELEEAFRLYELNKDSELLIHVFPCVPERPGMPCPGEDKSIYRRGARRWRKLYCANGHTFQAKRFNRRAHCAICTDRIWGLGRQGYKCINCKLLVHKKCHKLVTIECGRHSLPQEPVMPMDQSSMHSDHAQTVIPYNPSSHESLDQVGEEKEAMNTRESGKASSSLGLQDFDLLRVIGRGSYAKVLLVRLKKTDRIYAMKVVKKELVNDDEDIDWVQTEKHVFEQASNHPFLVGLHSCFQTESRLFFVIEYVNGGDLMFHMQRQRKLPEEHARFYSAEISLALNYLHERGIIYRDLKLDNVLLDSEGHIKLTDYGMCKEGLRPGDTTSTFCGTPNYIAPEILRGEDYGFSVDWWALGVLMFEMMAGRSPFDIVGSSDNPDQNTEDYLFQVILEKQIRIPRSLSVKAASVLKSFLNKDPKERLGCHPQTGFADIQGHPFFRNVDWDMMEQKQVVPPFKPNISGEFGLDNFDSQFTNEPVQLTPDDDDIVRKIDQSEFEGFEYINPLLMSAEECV

GSK3B = GSK3B (Homo sapiens, UniProt P49841); assay: KiNativ, OCI cells live cell; type: cell-based; details: 2 h, labeling site Lys2, peptide […]
Sequence of GSK3B (P49841 whole entry): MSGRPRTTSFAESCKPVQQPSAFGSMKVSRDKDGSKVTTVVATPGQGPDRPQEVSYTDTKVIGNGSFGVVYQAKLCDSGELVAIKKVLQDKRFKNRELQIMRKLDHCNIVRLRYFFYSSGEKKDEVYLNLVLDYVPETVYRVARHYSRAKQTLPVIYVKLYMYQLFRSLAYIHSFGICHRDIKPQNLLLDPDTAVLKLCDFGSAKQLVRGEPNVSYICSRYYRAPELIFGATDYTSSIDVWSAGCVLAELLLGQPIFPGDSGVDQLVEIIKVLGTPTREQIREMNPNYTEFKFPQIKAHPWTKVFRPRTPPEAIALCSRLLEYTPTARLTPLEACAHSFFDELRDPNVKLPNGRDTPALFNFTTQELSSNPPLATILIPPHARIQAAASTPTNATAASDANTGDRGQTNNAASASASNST

ACK1 = ACK1 (Homo sapiens, UniProt Q07912); assay: Kinase assay by Reaction Biology; type: biochemical; set-up: purchased Eurofins DiscoverX
JAK2 = target: T4, JAK2 (Homo sapiens, UniProt O60674); assay: KdELECT binding assay
T4 construct: purchased Eurofins DiscoverX

CDK5 = CDK5 (Homo sapiens, UniProt Q00535); assay: KiNativ, OCI cells live cell; type: cell-based; details: 2 h
Sequence of CDK5 (Q00535 whole entry): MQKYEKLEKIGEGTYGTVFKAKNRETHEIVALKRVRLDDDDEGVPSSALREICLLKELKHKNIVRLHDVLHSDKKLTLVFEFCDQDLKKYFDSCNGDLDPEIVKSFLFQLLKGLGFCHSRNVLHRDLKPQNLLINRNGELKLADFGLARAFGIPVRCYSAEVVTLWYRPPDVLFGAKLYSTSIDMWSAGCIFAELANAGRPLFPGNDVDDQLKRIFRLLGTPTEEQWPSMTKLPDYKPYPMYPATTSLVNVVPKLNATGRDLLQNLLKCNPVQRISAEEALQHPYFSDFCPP

NEK3 = NEK3 (Homo sapiens, UniProt P51956); assay: KiNativ, OCI cells live cell; type: cell-based; details: 2 h, labeling site Activation Loop, peptide […]
LATS2 = target: T5, LATS2 (Homo sapiens, UniProt Q9NRM7); assay: KiNativ, OCI cells live cell; type: cell-based
T5 sequence (Q9NRM7 1-1088): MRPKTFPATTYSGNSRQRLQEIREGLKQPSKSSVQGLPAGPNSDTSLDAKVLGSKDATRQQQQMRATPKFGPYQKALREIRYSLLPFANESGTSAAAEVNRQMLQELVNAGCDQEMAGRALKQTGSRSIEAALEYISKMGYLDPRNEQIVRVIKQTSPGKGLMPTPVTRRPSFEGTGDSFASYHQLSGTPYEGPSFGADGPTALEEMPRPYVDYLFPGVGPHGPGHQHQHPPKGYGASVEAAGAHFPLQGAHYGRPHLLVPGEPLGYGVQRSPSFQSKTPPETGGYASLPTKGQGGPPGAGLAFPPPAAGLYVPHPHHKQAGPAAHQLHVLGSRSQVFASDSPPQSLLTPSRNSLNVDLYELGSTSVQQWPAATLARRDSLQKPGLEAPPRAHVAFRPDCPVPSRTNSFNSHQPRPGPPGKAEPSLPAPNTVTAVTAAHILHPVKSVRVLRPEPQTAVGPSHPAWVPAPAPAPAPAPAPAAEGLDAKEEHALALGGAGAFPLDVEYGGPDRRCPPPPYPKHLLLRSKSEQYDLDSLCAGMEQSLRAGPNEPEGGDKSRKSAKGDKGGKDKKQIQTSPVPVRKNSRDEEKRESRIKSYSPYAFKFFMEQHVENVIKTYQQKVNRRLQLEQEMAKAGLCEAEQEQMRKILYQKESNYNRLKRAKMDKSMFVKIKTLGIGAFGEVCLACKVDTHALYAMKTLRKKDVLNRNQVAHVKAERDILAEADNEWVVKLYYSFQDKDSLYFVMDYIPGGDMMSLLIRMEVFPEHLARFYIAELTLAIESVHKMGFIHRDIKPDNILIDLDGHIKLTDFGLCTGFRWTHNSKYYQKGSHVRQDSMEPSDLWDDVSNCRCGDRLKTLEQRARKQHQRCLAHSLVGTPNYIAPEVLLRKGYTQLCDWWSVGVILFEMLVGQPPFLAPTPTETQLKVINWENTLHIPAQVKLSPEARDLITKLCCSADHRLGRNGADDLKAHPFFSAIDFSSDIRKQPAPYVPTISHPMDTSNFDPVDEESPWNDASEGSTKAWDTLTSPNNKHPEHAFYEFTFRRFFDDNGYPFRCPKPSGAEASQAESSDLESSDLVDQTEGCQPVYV

JAK1 = target: T6, JAK1 (Homo sapiens, UniProt P23458); assay: KdELECT binding assay
T6 construct: purchased Eurofins DiscoverX

Wnk1, Wnk2, Wnk4 = assay: KiNativ, OCI cells live cell; type: cell-based, human; details: labeling site Activation Loop, peptide IGDLGLATLKR
TLK2 = TLK2 (Homo sapiens, UniProt Q86UE8); assay: KiNativ, OCI cells live cell; type: cell-based; details: 2 h
Sequence of TLK2 (Q86UE8 whole entry): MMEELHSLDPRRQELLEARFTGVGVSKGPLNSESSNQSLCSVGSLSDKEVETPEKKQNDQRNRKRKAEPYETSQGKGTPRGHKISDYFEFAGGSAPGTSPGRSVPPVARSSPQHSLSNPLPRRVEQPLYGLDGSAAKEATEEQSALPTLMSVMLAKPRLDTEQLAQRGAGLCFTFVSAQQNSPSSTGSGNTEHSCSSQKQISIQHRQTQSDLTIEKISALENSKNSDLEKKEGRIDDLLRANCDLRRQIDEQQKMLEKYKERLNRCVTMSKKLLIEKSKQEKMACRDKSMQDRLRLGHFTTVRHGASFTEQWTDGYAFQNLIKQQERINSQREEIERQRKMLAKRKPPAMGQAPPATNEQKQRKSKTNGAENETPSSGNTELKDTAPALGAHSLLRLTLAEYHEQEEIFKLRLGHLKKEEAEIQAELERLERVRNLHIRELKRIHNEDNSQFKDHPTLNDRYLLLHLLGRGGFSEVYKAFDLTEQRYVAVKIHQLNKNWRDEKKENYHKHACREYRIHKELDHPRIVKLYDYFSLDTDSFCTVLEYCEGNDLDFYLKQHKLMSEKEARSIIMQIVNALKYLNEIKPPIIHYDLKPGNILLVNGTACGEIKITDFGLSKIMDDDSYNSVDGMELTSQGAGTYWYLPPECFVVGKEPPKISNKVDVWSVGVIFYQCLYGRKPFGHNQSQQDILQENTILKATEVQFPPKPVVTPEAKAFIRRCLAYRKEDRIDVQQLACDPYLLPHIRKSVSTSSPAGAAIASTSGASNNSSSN

MARK1, MARK2 = assay: KiNativ, OCI cells live cell; type: cell-based, human; details: labeling site Lys1, peptide EVAVKIIDK

Sequence of PKR (P19525 whole entry, the tested form may be a part): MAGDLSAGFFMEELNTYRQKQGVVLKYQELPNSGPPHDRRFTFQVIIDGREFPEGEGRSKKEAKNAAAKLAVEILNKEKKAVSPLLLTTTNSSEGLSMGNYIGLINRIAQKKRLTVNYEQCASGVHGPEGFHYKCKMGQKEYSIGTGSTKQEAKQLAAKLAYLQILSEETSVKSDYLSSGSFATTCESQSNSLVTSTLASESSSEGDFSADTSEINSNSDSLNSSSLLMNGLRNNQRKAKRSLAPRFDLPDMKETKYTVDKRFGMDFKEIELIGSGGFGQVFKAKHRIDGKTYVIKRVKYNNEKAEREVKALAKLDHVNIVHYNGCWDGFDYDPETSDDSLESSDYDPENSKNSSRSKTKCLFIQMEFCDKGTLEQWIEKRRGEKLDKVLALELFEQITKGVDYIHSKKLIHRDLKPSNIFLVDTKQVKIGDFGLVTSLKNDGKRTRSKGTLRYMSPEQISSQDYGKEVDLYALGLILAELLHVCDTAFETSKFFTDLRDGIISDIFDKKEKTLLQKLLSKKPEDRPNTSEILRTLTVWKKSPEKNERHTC
T1 sequence (Q9P2K8 whole entry, the tested form may be a part): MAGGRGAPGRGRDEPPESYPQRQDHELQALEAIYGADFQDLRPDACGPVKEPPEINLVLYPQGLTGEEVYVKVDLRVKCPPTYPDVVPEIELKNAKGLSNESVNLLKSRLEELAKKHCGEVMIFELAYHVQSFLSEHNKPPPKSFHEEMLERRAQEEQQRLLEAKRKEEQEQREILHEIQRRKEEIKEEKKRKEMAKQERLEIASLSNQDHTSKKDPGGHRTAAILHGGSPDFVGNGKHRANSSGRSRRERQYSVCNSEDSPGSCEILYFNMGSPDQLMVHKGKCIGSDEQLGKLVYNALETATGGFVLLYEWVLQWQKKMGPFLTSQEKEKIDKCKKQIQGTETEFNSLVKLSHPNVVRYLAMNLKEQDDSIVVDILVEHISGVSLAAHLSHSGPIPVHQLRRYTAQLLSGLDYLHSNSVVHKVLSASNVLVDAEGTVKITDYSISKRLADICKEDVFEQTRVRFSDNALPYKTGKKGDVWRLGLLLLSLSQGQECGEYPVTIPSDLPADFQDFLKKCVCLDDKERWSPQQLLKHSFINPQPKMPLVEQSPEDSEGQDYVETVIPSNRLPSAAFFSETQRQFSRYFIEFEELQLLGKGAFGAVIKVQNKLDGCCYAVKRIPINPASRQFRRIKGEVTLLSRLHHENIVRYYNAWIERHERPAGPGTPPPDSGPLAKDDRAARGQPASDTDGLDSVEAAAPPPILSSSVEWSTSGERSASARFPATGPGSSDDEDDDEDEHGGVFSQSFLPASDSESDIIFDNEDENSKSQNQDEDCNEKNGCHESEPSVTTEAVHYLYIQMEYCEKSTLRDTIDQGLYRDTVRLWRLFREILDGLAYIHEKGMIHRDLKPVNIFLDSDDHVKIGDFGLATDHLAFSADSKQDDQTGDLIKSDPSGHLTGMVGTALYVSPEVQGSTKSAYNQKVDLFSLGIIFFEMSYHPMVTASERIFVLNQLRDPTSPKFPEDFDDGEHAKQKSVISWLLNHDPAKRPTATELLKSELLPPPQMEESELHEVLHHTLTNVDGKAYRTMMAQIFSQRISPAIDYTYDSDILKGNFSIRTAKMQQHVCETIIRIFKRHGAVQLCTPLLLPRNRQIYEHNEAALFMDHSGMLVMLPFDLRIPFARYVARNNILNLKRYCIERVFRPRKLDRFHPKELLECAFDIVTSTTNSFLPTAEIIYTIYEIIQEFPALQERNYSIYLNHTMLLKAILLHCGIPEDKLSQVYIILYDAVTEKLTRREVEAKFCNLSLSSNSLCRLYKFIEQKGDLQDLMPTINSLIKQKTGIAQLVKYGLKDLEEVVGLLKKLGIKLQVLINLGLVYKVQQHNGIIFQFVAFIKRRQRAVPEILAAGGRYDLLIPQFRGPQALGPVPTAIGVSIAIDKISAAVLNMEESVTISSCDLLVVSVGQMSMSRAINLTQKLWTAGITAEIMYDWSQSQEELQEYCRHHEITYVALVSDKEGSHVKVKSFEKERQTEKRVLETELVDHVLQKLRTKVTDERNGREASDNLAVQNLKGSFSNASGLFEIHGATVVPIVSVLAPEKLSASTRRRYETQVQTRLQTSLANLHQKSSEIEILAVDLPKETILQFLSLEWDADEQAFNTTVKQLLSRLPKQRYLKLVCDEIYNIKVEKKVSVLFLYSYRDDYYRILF

Structure (SMILES): CN1CCN(Cc2ccc(Nc3ncc(Cl)c(Nc4ccccc4S(=O)(=O)N(C)C)n3)cc2)CC1 [TP-0903]
- Inhibition (PKR; labeling site Activation Loop, peptide IGDFGLVTSLKNDGKR): -16.3%
- Inhibition (PKR; labeling site Lys2, peptide DLKPSNIFLVDTK): -9.9%
- inhibition at 0.1 µM (GCN2 domain2; labeling site Lys1, peptide LDGCCYAVKR): -6.9%
- inhibition at 0.1 µM (GCN2 domain2; labeling site Lys2, peptide DLKPVNIFLDSDDHVK): -2.8%
- inhibition at 0.1 µM (HCK): -3.8%
- inhibition at 0.1 µM (RSK3 domain1): 53.5%
- Kd (CDK4): < 5 nM
- inhibition at 0.1 µM (MLK4): 12.7%
- Inhibition [1]: 4.2%
- inhibition at 0.1 µM (ARAF): -0.7%
- inhibition at 0.1 µM (RSK2 domain1; labeling site Activation Loop, peptide LTDFGLSKESIDHEKK): 52.4%
- inhibition at 0.1 µM (RSK2 domain1; labeling site Lys1, peptide QLYAMKVLK): 48.2%
- Inhibition (KSR1, KSR2): -3.1%
- Inhibition (CDK2; labeling site Lys1, peptide LTGEVVALKK): 37.1%
- Inhibition (CDK2; labeling site Lys2, peptide DLKPQNLLINTEGAIK): 41.4%
- inhibition at 0.1 µM (PKCi; labeling site Lys1, peptide IYAMKVVK): 9.2%
- inhibition at 0.1 µM (PKCi; labeling site Lys2, peptide DLKLDNVLLDSEGHIK): 8.9%
- inhibition at 0.1 µM (GSK3B): 32.3%
- IC50 (ACK1): 30.7 nM
- Kd (JAK2): < 5 nM
- inhibition at 0.1 µM (CDK5; labeling site Lys1, peptide NRETHEIVALKR): 57%
- inhibition at 0.1 µM (CDK5; labeling site Lys2, peptide DLKPQNLLINR): 55.5%
- inhibition at 0.1 µM (NEK3): -11.9%
- Inhibition (LATS2; labeling site Lys1, peptide VDTHALYAMKTLR): -1.0%
- Inhibition (LATS2; labeling site Lys2, peptide DIKPDNILIDLDGHIK): -30.2%
- Kd (JAK1): 23 nM
- Inhibition (Wnk1, Wnk2, Wnk4): -23.7%
- inhibition at 0.1 µM (TLK2; labeling site Lys1, peptide YVAVKIHQLNK): -7.2%
- inhibition at 0.1 µM (TLK2; labeling site Lys2, peptide YLNEIKPPIIHYDLKPGNILLVNGTACGEIK): -3.1%
- Inhibition (MARK1, MARK2): 26.6%
